Patent US20100323990A1, “SHIP 1 MODULATOR PRODRUGS” (THE UNIVERSITY OF BRITISH COLUMBIA, priority 2006, published 2010)

Tested on: SHIP enzyme
Assay: In vitro SHIP enzyme assay (Assay 1), phosphate release by Malachite Green; for Assay 1: SHIP enzyme assay, desired activity: key: a ‘+’ indicates a positive result for desired activity; a ‘−’ indicates a negative result for desired activity
Format: biochemical
Method: Assay 1) In vitro testing in a SHIP enzyme assay. Test compounds were dissolved in a suitable solvent (e.g. EtOH, DMSO and others) and diluted into aqueous buffer (20 mM Tris HCl, pH 7.5 and 10 mM MgCl2). SHIP enzyme assays were performed in 96-well microtitre plates with 10 ng of enzyme/well in a total volume of 25 μL of 20 mM Tris HCl, pH 7.5 and 10 mM MgCl2. SHIP enzyme was incubated with test extracts (provided in solvent) or vehicle for 15 min at 23° C. before the addition of 100 μM inositol-1,3,4,5-tetrakisphosphate (Echelon Biosciences Inc, Salt Lake City, Utah). After 20 min at 37° C. and the amount of inorganic phosphate released assessed by the addition of Malachite Green reagent and absorbance measurement at 650 nm. Assay 2) Macrophage TNF-α production. J774.1a macrophage cells were treated with 10 μg/mL of test compound dissolved in solvent (e.g. cyclodextran) for 40 minutes prior to the addition of 100 ng/mL LPS. Culture supernatants were collected after 2 hr and 5 hr for TNF-α determination by ELISA. Assay 3) Macrophage TNF-α NO assay. J774.1a macrophage cells were treated with 10 μg/ml of test compound dissolved in solvent for 40 minutes prior to the addition of LPS. Culture supernatants were collected after 24 hr. for determination of NO concentration using the Griess reagent. Assay 4) Stimulation of mast cells by FcεRI crosslinking. Mast cells were pre-loaded overnight in BMMC medium lacking IL-3 with 0.1 μg/ml anti-DNP IgE (SPE-7, Sigma, Oakville, Ont). For calcium flux measurements, cells were incubated with 2 μM fura 2-acetoxymethyl ester (Molecular Probes, Eugene, Oreg.) in Tyrode's buffer at 23° C. for 45 min. Cells were then washed and incubated in the presence of the test compound 30 min prior to stimulation with the indicated concentration of DNP-human serum albumin (DNP-HSA). Calcium influx was monitored by spectrofluorometry as described previously. For analysis of intracellular signaling, cells were pre-loaded with anti-DNP IgE as above, pre-treated with the test compound for 30 min at 37° C. and stimulated with 20 ng/ml DNP-HSA for 5 min. Total cell lysates were then prepared and analyzed for phospho-PKB, phospho-p38^MAPK, phospho-MAPK, Grb-2 (Cell Signalling, Mississauga, Ont) and SHIP^6 by immunoblot analysis. Assay 5) Mouse acute cutaneous anaphylaxis model. 6-8 week old CD1 mice (University of British Columbia Animal Facility, Vancouver, BC) were sensitized to the hapten DNP by cutaneous application of 25 μL of 0.5% dinitrofluorobenzene (DNFB) (Sigma, Oakville, Ont) in acetone to the shaved abdomen of mice for two consecutive days. 24 hrs later, test substances (dissolved in 10 μL of 1:2 DMSO:MeOH) were painted on the right ear while the left ear received vehicle control. 30 min after drug application, DNFB was applied to both ears to induce mast cell degranulation. A 6 mm punch was taken from the ear and immediately frozen on dry ice for subsequent determination of neutrophil myeloperoxidase (MPO) activity. Assay 6) Mouse endotoxemia model. 6-8 week old C57B16 mice (VCHRI Mammalian Model of Human Disease Core Facility, Vancouver, BC) were orally administered the test compound 30 min prior to an IP injection of 2 mg/kg of LPS (E. Coli serotype 0111:B4, Sigma, Oakville, Ont). Blood was drawn 2 hrs later for determination of plasma TNFα by ELISA. Assay 7) In vitro Mulitple Myeloma (MM) assay. The ability of SHIP activators to reduce tumor cell survival was assessed in MM cell lines treated with the test compound. The lines OPM1, OPM2, MM.1S and RPMI 8226 were plated at a density of 1×10^5 cells/mL in 200 μL of medium with various concentrations of the test compound, and viable cell numbers were determined on day 3 and day 5 by trypan blue exclusion. The lines RPMI 8226 and U266 were plated at a density of 1×10^6 cells/mL in 250 μL of medium with various concentrations of the test compound. At day 4, the medium of each culture was replaced by fresh medium containing the same concentration of test compound. […]

SHIP enzyme activity in vitro: enhanced SHIP enzyme activity in vitro
Assay 1: SHIP enzyme assay, desired activity (10 ng enzyme/well, 100 μM inositol-1,3,4,5-tetrakisphosphate): +
Compound: Cc1cc(O)cc2c1[C@]1(C)CCC3C(C)(C)CCC[C@]3(C)[C@H]1C2 (some centres unmarked) [Compound 100]
